Laboratory results reported in US20110281950A1, “COMPOSITIONS AND METHODS FOR REDUCING PROLIFERATION AND VIABILITY OF LYMPHOBLASTOID CELLS” (priority 2010, published 2011).
Like-named read-outs stand apart in the source and are kept apart here.

Legend:
Assay type in all cases: cell-based
[1] = system: Purified NK cells; test: NK cell IFNγ and GzB ELISPOT (Example 5); conditions: for NK cell GzB, ELISPOT: untreated control 91 spots; for NK cell IFNγ, ELISPOT: untreated control 314 spots
Procedure: Purified NK cells were initially treated overnight (NK) with 100 nM, 250 nM or 500 nM AR-42. The NK cells were further stimulated using inflammatory cytokines cytokines IL-2 (50 pM) and IL-12 (10 ng/ml) in an ELISPOT assay to determine IFNγ and GzB secretion potentials. Results were quantified by an ELISPOT analyzer.

[2] = system: Activated EBV-specific T cells; test: T cell ELISPOT with and without AR-42 washout (Example 6); conditions: long-term exposure, 500 nM
Procedure: Activated EBV-specific T cells expanded in the presence of AR-42 were further incubated in media with and without AR-42. After 5 days, the T cells were stimulated with EBV+ LCLs in an ELISPOT assay to determine IFNγ and GzB secretion potentials.

[3] = system: NK cell-driven antibody dependent cellular cytotoxicity (ADCC) against target B cells; test: NK cell-driven ADCC, four hour 51Cr release assay (Example 3)
Procedure: (§1) The effects of AR-42 on EBV-specific cytotoxic T cell (CTL) cytotoxicity were assessed in vitro. Peripheral blood mononuclear cells (PBMC) and autologous EBV+ LCL were co-culturing in media containing IL-2 (50 μM) and either DSMO (control) or AR-42 (100 nM). EBV-specific CTLs were identified with anti-CD8 mAb and HLAB8-RAK tetramer, upon a 12 day expansion, the results of which are shown in FIG. 10. […] At day 13, the EBV-specific CTLs were incubated overnight in 100, 250, & 500 nM AR-42+IL-2 (50 μM). The next day, a four hour ^51Cr release assay was performed on each incubated sample in order to access the effects of AR-42 on EBV-specific cytotoxic T cell (CTL) cytotoxicity. This is shown schematically in FIG. 2, which illustrates autologous target EBV+ LCLs are labeled with ^51Cr, which is actively internalized by each cell via pumps in its membrane; effector CTLs are counted and plated at desired effector-target ratios; labeled targets are incubated with effectors for four hours; and lysed targets release intracellular ^51Cr into the supernatant, which is harvested and analyzed for radioactivity using a gamma counter. Effector-target ratios of 50:1, 25:1, and 12.5:1 were used.
The effects of AR-42 on NK cell-driven antibody dependent cellular cytotoxicity (ADCC) were assessed in vitro. NK cells were treated overnight with AR-42 (100 nM, 250 nM, 500 nM) or Rituximab (anti-CD20) or Herceptin (anti-erbB2). Rituximab (anti-CD20) was the antibody of choice for the assay because of its wide clinical use and proven efficacy against B cell lymphomas that express CD20 antigen. Herceptin (anti-erbB2), a commonly used breast cancer drug, was used as a negative control. The effect of AR-42 on NK cell-driven antibody dependent cellular cytotoxicity (ADCC) was assessed using a four hour ^51Cr release assay. The four hour ^51Cr release assay was performed as described with respect to Example 2A, except that effector-target ratios of 25:1, 12.5:1, & 6.25:1 were used.

[4] = system: EBV+ LCLs; test: Cell surface protein expression on EBV+ LCLs, flow cytometry (Example 8)
[5] = system: Activated EBV-specific T cells; test: T cell IFNγ and GzB ELISPOT (Example 4); conditions: 4 days; for T cell IFNγ secretion, ELISPOT: untreated control 98 spots; for T cell GzB secretion, ELISPOT: untreated control 107 spots
Procedure: The production of proteins associated with the T cell cytotoxic response (interferon-γ, granzyme B) was determined in vitro. Activated EBV-specific T cells were initially treated for 4 days (T) with 100 nM or 500 nM AR-42 and further stimulated with EBV+ LCLs (effector-target ratio: 1:1) in an ELISPOT assay to determine IFNγ and GzB secretion potentials. Release of interferon-gamma (IFNγ) or granzyme B (GzB) was visualized using monoclonal IFNγ/GzB antibodies with BCIP/NBT substrate solution. Results were quantified by an enzyme-linked immunosorbent spot assay (ELISPOT) analyzer.

[6] = system: purified CD56+ NK cells; test: Cell surface protein expression on NK cells, flow cytometry (Example 8); conditions: 24 hours; for expression of activating NK cell receptor NKG2D: AR-42 100, 500 nM, SAHA 100, 1000 nM
Source text: The mechanism by which HDAC inhibition affects NK cell-driven ADCC was investigated in vitro. […] Viable cells were then collected and stained with monoclonal antibodies specific for cell surface proteins with known stimulatory (NKG2D, FcγRIII) or inhibitory (KIR) activity. Protein expression was then quantified via flow cytometry.

[7] = system: Purified NK cells; test: NK cell 51Cr release cytotoxicity assay, continuous treatment or washout (Example 7); conditions: control 64%
Source text: (§2) Purified NK cells in DMSO were used as a control. The cells were subsequently analyzed in an IFNγ ELISPOT assay or a ^51Cr release cytotoxicity assay.

[8] = system: EBV-specific CD8+ T-cells; test: EBV-specific T-cell expansion, RAK tetramer (Example 2A); conditions: 100, 250, 500 nM, two weeks co-culture with irradiated LCLs
Procedure: The effect of AR-42 on EBV-specific T-cell expansion was determined. Irradiated LCLs were added to purified PBMCs and maintained in co-culture for two weeks with AR-42 (100 nM, 250 nM, 500 nM). After two weeks, the EBV-specific T-cell expansion was measured using the RAK tetramer. This tetramer contains the […] peptide which binds the HLA-B8 MHC type I epitope, and can be used to identify EBV-specific (BZLF1 specific) CD8+ T-cells.

[9] = system: LCLs (C7M3, DC9); test: Viability and proliferation of lymphoblastoid cell lines (Example 1A); conditions: 100, 250, 500, 750 and 1000 nM
Procedure: The effects of AR-42 on the viability and proliferation of lymphoblastoid cell lines was determined. […] Cell viability was analyzed by annexin/PI staining and flow cytometry. Cell counts were measured at day 5. The results are seen in FIGS. 14A and 14B. In FIGS. 14A and 14B, the standard deviation represents the results from triplicate experiments.

[10] = system: Purified NK cells; test: NK cell IFNγ ELISPOT, continuous treatment or washout (Example 7); conditions: control 569 spots
Source text: as §2

[11] = system: EBV-specific cytotoxic T cell (CTL) cytotoxicity against autologous EBV+ LCLs; test: EBV-specific CTL cytotoxicity, four hour 51Cr release assay (Example 2)
Procedure: as §1

[12] = system: EBV+ transformed B lymphoblastoid cell lines (EBV+ LCL); test: Viability of EBV+ LCL cultured with HDAC inhibitors, annexin/PI staining and flow cytometry (Example 1)
Procedure: Cell viability was then analyzed every 24 hours by annexin/PI staining and flow cytometry.

[13] = system: peripheral blood mononuclear cells (PBMCs); test: PBMC viability, PI staining and flow cytometry (Example 9); conditions: 100, 250, 500, 1000 nM, 2 and 4 days
Procedure: The effect of AR-42 on the viability of peripheral blood mononuclear cells (PBMCs) was determined. PBMCs were isolated from three random donor leukopaks and incubated with AR-42 (100 nM, 250 nM, 500 nM, 1000 nM) for 2 and 4 days. Viability was assessed by PI staining using flow cytometry. All results were normalized relative to untreated DMSO controls. […] The standard deviations in FIG. 15 represent the mean of the three leukopaks.

CC(C)C(C(=O)Nc1ccc(C(=O)NO)cc1)c1ccccc1 (stereo not drawn) [AR-42, N-hydroxy-4-(3-methyl-2-phenyl-butyrylamino)-benzamide]
NK cell GzB, ELISPOT ([1]; 100 nM overnight): 22 spots
NK cell IFNγ, ELISPOT ([1]; 100 nM overnight): 63 spots
NK cell GzB, ELISPOT ([1]; 250 nM overnight): 7 spots
NK cell IFNγ, ELISPOT ([1]; 250 nM overnight): 10 spots
NK cell GzB, ELISPOT ([1]; 500 nM overnight): 10 spots
NK cell IFNγ, ELISPOT ([1]; 500 nM overnight): 1 spots
cytotoxic function of activated T cells [2]: eventual loss of cytotoxic function
NK cytotoxicity (ADCC) in combination with rituximab ([3]; 100 nM overnight, highest effector-target ratio (25:1)): 36%
NK cytotoxicity (ADCC) in combination with rituximab ([3]; 250 nM overnight, highest effector-target ratio (25:1)): 23%
NK cytotoxicity (ADCC) in combination with rituximab ([3]; 500 nM overnight): 1.1%
Mic A/B (NKG2D ligand) expression on EBV+ LCLs ([4]; 500 nM and 1000 nM, 24 and 48 hours): unaffected
MHC Class I expression (KIR ligand) on EBV+ LCLs ([4]; higher concentrations (500 nM and 1000 nM, 24 and 48 hours)): down modulates
T cell IFNγ secretion, ELISPOT ([5]; 100 nM): 47 spots
T cell GzB secretion, ELISPOT ([5]; 100 nM): 99 spots
T cell IFNγ secretion, ELISPOT ([5]; 500 nM): 3 spots
T cell GzB secretion, ELISPOT ([5]; 500 nM): 5 spots
expression of inhibitory receptor KIR on NK cells ([6]; especially at 500 nM): down modulates
expression of activating NK cell receptor NKG2D [6]: down modulate
NK cytotoxic activity ([7]; 100 nM treated, max E:T ratio): 36%
NK cytotoxic activity ([7]; 100 nM, washout): 41%
NK cytotoxic activity ([7]; 250 nM treated, max E:T ratio): 23%
NK cytotoxic activity ([7]; 250 nM, washout): 36%
NK cytotoxic activity ([7]; 500 nM treated, max E:T ratio): 1%
NK cytotoxic activity ([7]; 500 nM, washout): 42%
EBV-specific T-cell expansion [8]: decreases EBV-specific T-cell expansion in a dose dependent manner
antiproliferative activity in EBV+ LCL cell lines [9]: antiproliferative activity in EBV+ LCL cell lines in a dose dependent manner
NK cell IFNγ secretion, ELISPOT ([10]; AR-42 100 nM treated): 207 spots
NK cell IFNγ secretion, ELISPOT ([10]; AR-42 100 nM, 24 hour treatment+24 hour washout): 418 spots
NK cell IFNγ secretion, ELISPOT ([10]; AR-42 250 nM treated): 10 spots
NK cell IFNγ secretion, ELISPOT ([10]; AR-42 250 nM, 24 hour treatment+24 hour washout): 235 spots
NK cell IFNγ secretion, ELISPOT ([10]; AR-42 500 nM treated): 6 spots
NK cell IFNγ secretion, ELISPOT ([10]; AR-42 500 nM, 24 hour treatment+24 hour washout): 96 spots
CTL cytotoxicity ([11]; 100 nM overnight, highest effector-target ratio (50:1)): 19%
CTL cytotoxicity ([11]; 250 nM overnight, highest effector-target ratio (50:1)): 12%
CTL cytotoxicity ([11]; 500 nM overnight): −2%
concentration that inhibits EBV+ LCL growth [12]: ≥ 250 nM
viability at day 4 compared with day 2 ([12]; 750 and 1000 nM): higher viability by day 4
viability at 0.25 µM ([12]; Lymphoblastoid cell, 48 h, 250 nM, day 2, read-out: viability of B cell population): 87%
viability at 0.5 µM ([12]; Lymphoblastoid cell, 48 h, 500 nM, day 2, read-out: viability of B cell population): 75%
viability at 0.75 µM ([12]; Lymphoblastoid cell, 48 h, 750 nM, day 2, read-out: viability of B cell population): 62%
viability at 1 µM ([12]; Lymphoblastoid cell, 48 h, 1000 nM, day 2, read-out: viability of B cell population): 54%
viability of PBMCs [13]: decreases the viability of PBMCs in a dose dependent manner

O=C(CCCCCCC(=O)Nc1ccccc1)NO [SAHA, suberoylanilide hydroxamic acid, reference compound]
expression of activating NK cell receptor NKG2D [6]: down modulate
NK cell IFNγ secretion, ELISPOT ([10]; SAHA 100 nM treated): 452 spots
NK cell IFNγ secretion, ELISPOT ([10]; SAHA 500 nM treated): 366 spots
NK cell IFNγ secretion, ELISPOT ([10]; SAHA 1000 nM treated): 166 spots
B cell death ([12]; 250-2000 nM, 4 day incubation): little cell death
viability at 4 µM ([12]; Lymphoblastoid cell, 96 h, 4000 nM, day 4, read-out: viability of B cell population): 69%

CCCC(CCC)C(=O)O [valproate, reference compound]
NK cell IFNγ secretion, ELISPOT ([10]; valproate 1 mM): 446 spots
NK cell IFNγ secretion, ELISPOT ([10]; valproate 2 mM): 238 spots
viability at 2000 µM ([12]; Lymphoblastoid cell, 72 h, 2.0 mM, day 3, read-out: viability of B cell population): 83%
viability at 3000 µM ([12]; Lymphoblastoid cell, 72 h, 3 mM, day 3, read-out: viability of B cell population): 73%
viability at 4000 µM ([12]; Lymphoblastoid cell, 72 h, 4.0 mM, day 3, read-out: viability of B cell population): 63%
viability at 4000 µM ([12]; Lymphoblastoid cell, 96 h, 4 mM, day 4, read-out: viability of B cell population): 71%

rituximab: anti-CD20 antibody used for the ADCC assay
relative ADCC ([3]; NK cells not treated with AR-42, effector-target ratio 6.25:1): 52%
relative ADCC ([3]; NK cells not treated with AR-42, effector-target ratio 12.5:1): 56%
relative ADCC ([3]; NK cells not treated with AR-42, effector-target ratio 25:1): 64%
